Results as given in the supplement of paper PMC11208160.

experiment: recombinant UMI read abundance after kanamycin selection (control-corrected) (log10(CPM+1)); higher = more efficient recombination; extreme values may be limits of the assay; sequences stand for … in AGTGCAGAGAAAATCGGCCAGTTTTCTCTGCCTGCAGTCCGCATGCCGTGGGACCCCTTGGGTTCTAACCTGTTGCCTAGATTTATGCAGCGGACTGCCTTTCTCCCAAAGTGATAAACCGG…AGGTTGGTTTCACT; site = the 11-nt donor
Summary of the method: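 Sequencing read counts were converted to CPM, averaged over two replicates and scaled by control-derived factors. Results are given as log10(CPM+1). The reads covered the donor–target junction of recombinant UMIs from a pooled Escherichia coli screen of donor and donor-binding-loop pairs for the IS621 bridge recombinase.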
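Note: IS621 bridge recombinase in Escherichia coli cells against a fixed T5 target plasmid.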

Q: For “CAGCAACCATGGACCGGTTTTCCCGGTAATCCGTATTTGCA (site CAGCAACCTTG)”, which “recombinant UMI read abundance (log10)” value is on record?
A: Its value is 0.

Q: Which “recombinant UMI read abundance (log10)” value does the source give for “CAGCAATCATGGACCGGTTTTCCCGGTAATCCGTATTTGGT (site CAGCAATCTAC)” here?
A: The value was 2.73.

Q: With “CAGCCTTCATGGACCGGTTTTCCCGGTAATCCGTATTTGGT (site AAGCCTTCTAC)” as the sequence, how does the “recombinant UMI read abundance (log10)” value read?
A: The value was 0.

Q: With “CAGCCTTCATGGACCGGTTTTCCCGGTAATCCGTATTTGGT (site CAGCCTTCTAC)” as the sequence, how does the “recombinant UMI read abundance (log10)” value read?
A: The value was 0.949.

Q: With “CAGCCTTCATGGACCGGTTTTCCCGGTAATCCGTATTTGGT (site GAGCCTTCTAC)” as the sequence, how does the “recombinant UMI read abundance (log10)” value read?
A: The value was 0.00376.

Q: For “CAGCCTTCATGGACCGGTTTTCCCGGTAATCCGTATTTGGT (site TAGCCTTCTAC)”, which “recombinant UMI read abundance (log10)” value is on record?
A: Its value is 0.0206.

Q: With “CAGCCTTCATGGACCGGTTTTCCCGGTAATCCGTATTTGTG (site CAGCCTTCTCA)” as the sequence, how does the “recombinant UMI read abundance (log10)” value read?
A: Its value is 0.108.

Q: For “CAGCGTGCATGGACCGGTTTTCCCGGTAATCCGTATTTGCT (site CAGCGTGCTAG)”, which “recombinant UMI read abundance (log10)” value is on record?
A: The value was 2.76.

Q: Which “recombinant UMI read abundance (log10)” value does the source give for “CAGCTAGCATGGACCGGTTTTCCCGGTAATCCGTATTTGAA (site AAGCTAGCTTT)” here?
A: Its value is 0.0151.

Q: With “CAGCTAGCATGGACCGGTTTTCCCGGTAATCCGTATTTGAA (site CAGCTAGCTTT)” as the sequence, how does the “recombinant UMI read abundance (log10)” value read?
A: Its value is 2.54.

Q: Which “recombinant UMI read abundance (log10)” value does the source give for “CAGCTAGCATGGACCGGTTTTCCCGGTAATCCGTATTTGAA (site GAGCTAGCTTT)” here?
A: Its value is 0.0499.

Q: For “CAGCTAGCATGGACCGGTTTTCCCGGTAATCCGTATTTGAA (site TAGCTAGCTTT)”, which “recombinant UMI read abundance (log10)” value is on record?
A: Its value is 0.596.

Q: For “CAGGCAACATGGACCGGTTTTCCCGGTAATCCGTATTTGTG (site CAGGCAACTCA)”, which “recombinant UMI read abundance (log10)” value is on record?
A: Its value is 0.912.

Q: For “CAGGCGCCATGGACCGGTTTTCCCGGTAATCCGTATTTGTG (site CAAGCGCCTCA)”, which “recombinant UMI read abundance (log10)” value is on record?
A: Its value is 0.0213.

Q: Which “recombinant UMI read abundance (log10)” value does the source give for “CAGGCGCCATGGACCGGTTTTCCCGGTAATCCGTATTTGTG (site CACGCGCCTCA)” here?
A: Its value is 0.

Q: For “CAGGCGCCATGGACCGGTTTTCCCGGTAATCCGTATTTGTG (site CAGGCGCCTCA)”, which “recombinant UMI read abundance (log10)” value is on record?
A: Its value is 0.428.

Q: With “CAGGCGCCATGGACCGGTTTTCCCGGTAATCCGTATTTGTG (site CATGCGCCTCA)” as the sequence, how does the “recombinant UMI read abundance (log10)” value read?
A: Its value is 0.0319.

Q: With “CAGGGCCCATGGACCGGTTTTCCCGGTAATCCGTATTTGCA (site CAGGGCCCTTG)” as the sequence, how does the “recombinant UMI read abundance (log10)” value read?
A: The value was 1.24.

Q: Which “recombinant UMI read abundance (log10)” value does the source give for “CAGGGCCCATGGACCGGTTTTCCCGGTAATCCGTATTTGTT (site CAAGGCCCTAA)” here?
A: Its value is 0.

Q: For “CAGGGCCCATGGACCGGTTTTCCCGGTAATCCGTATTTGTT (site CACGGCCCTAA)”, which “recombinant UMI read abundance (log10)” value is on record?
A: Its value is 0.025.

Q: Which “recombinant UMI read abundance (log10)” value does the source give for “CAGGGCCCATGGACCGGTTTTCCCGGTAATCCGTATTTGTT (site CAGGGCCCTAA)” here?
A: Its value is 0.381.

Q: With “CAGGGCCCATGGACCGGTTTTCCCGGTAATCCGTATTTGTT (site CATGGCCCTAA)” as the sequence, how does the “recombinant UMI read abundance (log10)” value read?
A: The value was 0.00426.

Q: For “CAGGGCTCATGGACCGGTTTTCCCGGTAATCCGTATTTGTT (site CAGGGCTCTAA)”, which “recombinant UMI read abundance (log10)” value is on record?
A: Its value is 2.71.

Q: With “CAGGTTCCATGGACCGGTTTTCCCGGTAATCCGTATTTGAA (site CAGGTTCCTTT)” as the sequence, how does the “recombinant UMI read abundance (log10)” value read?
A: The value was 1.98.

Q: With “CAGGTTGCATGGACCGGTTTTCCCGGTAATCCGTATTTGGC (site CAGGTTGCTGC)” as the sequence, how does the “recombinant UMI read abundance (log10)” value read?
A: Its value is 2.08.

Q: For “CAGTAAGCATGGACCGGTTTTCCCGGTAATCCGTATTTGTG (site CAGTAAGCTCA)”, which “recombinant UMI read abundance (log10)” value is on record?
A: The value was 2.41.

Q: Which “recombinant UMI read abundance (log10)” value does the source give for “CAGTCCACATGGACCGGTTTTCCCGGTAATCCGTATTTGGG (site CAGTCAACTCC)” here?
A: Its value is 0.00382.

Q: With “CAGTCCACATGGACCGGTTTTCCCGGTAATCCGTATTTGGG (site CAGTCCACTCC)” as the sequence, how does the “recombinant UMI read abundance (log10)” value read?
A: The value was 0.00714.

Q: With “CAGTCCACATGGACCGGTTTTCCCGGTAATCCGTATTTGGG (site CAGTCGACTCC)” as the sequence, how does the “recombinant UMI read abundance (log10)” value read?
A: The value was 0.024.

Q: With “CAGTCCACATGGACCGGTTTTCCCGGTAATCCGTATTTGGG (site CAGTCTACTCC)” as the sequence, how does the “recombinant UMI read abundance (log10)” value read?
A: The value was 0.

Q: Which “recombinant UMI read abundance (log10)” value does the source give for “CAGTCCGCATGGACCGGTTTTCCCGGTAATCCGTATTTGCT (site CAGTCCGCTAG)” here?
A: The value was 2.64.

Q: Which “recombinant UMI read abundance (log10)” value does the source give for “CAGTCCTCATGGACCGGTTTTCCCGGTAATCCGTATTTGCC (site CAATCCTCTGG)” here?
A: Its value is 2.78.

Q: Which “recombinant UMI read abundance (log10)” value does the source give for “CAGTCCTCATGGACCGGTTTTCCCGGTAATCCGTATTTGCC (site CACTCCTCTGG)” here?
A: The value was 2.05.

Q: With “CAGTCCTCATGGACCGGTTTTCCCGGTAATCCGTATTTGCC (site CAGTCCTCTGG)” as the sequence, how does the “recombinant UMI read abundance (log10)” value read?
A: Its value is 2.38.

Q: With “CAGTCCTCATGGACCGGTTTTCCCGGTAATCCGTATTTGCC (site CATTCCTCTGG)” as the sequence, how does the “recombinant UMI read abundance (log10)” value read?
A: The value was 0.879.

Q: With “CAGTCGACATGGACCGGTTTTCCCGGTAATCCGTATTTGTG (site CAGTCGACTCA)” as the sequence, how does the “recombinant UMI read abundance (log10)” value read?
A: The value was 0.661.

Q: Which “recombinant UMI read abundance (log10)” value does the source give for “CAGTCGACATGGACCGGTTTTCCCGGTAATCCGTATTTGTG (site CAGTCGACTCC)” here?
A: The value was 0.022.

Q: With “CAGTCGACATGGACCGGTTTTCCCGGTAATCCGTATTTGTG (site CAGTCGACTCG)” as the sequence, how does the “recombinant UMI read abundance (log10)” value read?
A: The value was 0.00379.

Q: Which “recombinant UMI read abundance (log10)” value does the source give for “CAGTCGACATGGACCGGTTTTCCCGGTAATCCGTATTTGTG (site CAGTCGACTCT)” here?
A: Its value is 0.00896.

Q: For “CAGTCGTCATGGACCGGTTTTCCCGGTAATCCGTATTTGGG (site CAGTCGACTCC)”, which “recombinant UMI read abundance (log10)” value is on record?
A: The value was 0.00913.

Q: With “CAGTCGTCATGGACCGGTTTTCCCGGTAATCCGTATTTGGG (site CAGTCGCCTCC)” as the sequence, how does the “recombinant UMI read abundance (log10)” value read?
A: The value was 0.0207.

Q: With “CAGTCGTCATGGACCGGTTTTCCCGGTAATCCGTATTTGGG (site CAGTCGGCTCC)” as the sequence, how does the “recombinant UMI read abundance (log10)” value read?
A: The value was 0.0122.

Q: With “CAGTCGTCATGGACCGGTTTTCCCGGTAATCCGTATTTGGG (site CAGTCGTCTCC)” as the sequence, how does the “recombinant UMI read abundance (log10)” value read?
A: The value was 0.348.

Q: For “CAGTGCTCATGGACCGGTTTTCCCGGTAATCCGTATTTGAA (site CAATGCTCTTT)”, which “recombinant UMI read abundance (log10)” value is on record?
A: The value was 1.35.

Q: Which “recombinant UMI read abundance (log10)” value does the source give for “CAGTGCTCATGGACCGGTTTTCCCGGTAATCCGTATTTGAA (site CACTGCTCTTT)” here?
A: Its value is 0.28.

Q: With “CAGTGCTCATGGACCGGTTTTCCCGGTAATCCGTATTTGAA (site CAGTGCTCTTT)” as the sequence, how does the “recombinant UMI read abundance (log10)” value read?
A: Its value is 2.48.

Q: For “CAGTGCTCATGGACCGGTTTTCCCGGTAATCCGTATTTGAA (site CATTGCTCTTT)”, which “recombinant UMI read abundance (log10)” value is on record?
A: Its value is 0.0098.

Q: With “CAGTGGACATGGACCGGTTTTCCCGGTAATCCGTATTTGGG (site CAGTAGACTCC)” as the sequence, how does the “recombinant UMI read abundance (log10)” value read?
A: Its value is 0.368.

Q: With “CAGTGGACATGGACCGGTTTTCCCGGTAATCCGTATTTGGG (site CAGTCGACTCC)” as the sequence, how does the “recombinant UMI read abundance (log10)” value read?
A: The value was 0.0117.

Q: For “CAGTGGACATGGACCGGTTTTCCCGGTAATCCGTATTTGGG (site CAGTGGACTCC)”, which “recombinant UMI read abundance (log10)” value is on record?
A: The value was 0.0835.

Q: For “CAGTGGACATGGACCGGTTTTCCCGGTAATCCGTATTTGGG (site CAGTTGACTCC)”, which “recombinant UMI read abundance (log10)” value is on record?
A: Its value is 0.0125.

Q: Which “recombinant UMI read abundance (log10)” value does the source give for “CAGTTAGCATGGACCGGTTTTCCCGGTAATCCGTATTTGTG (site CAGTTAGCTCA)” here?
A: The value was 2.09.

Q: With “CAGTTAGCATGGACCGGTTTTCCCGGTAATCCGTATTTGTG (site CCGTTAGCTCA)” as the sequence, how does the “recombinant UMI read abundance (log10)” value read?
A: Its value is 0.0219.

Q: With “CAGTTAGCATGGACCGGTTTTCCCGGTAATCCGTATTTGTG (site CGGTTAGCTCA)” as the sequence, how does the “recombinant UMI read abundance (log10)” value read?
A: Its value is 0.347.

Q: Which “recombinant UMI read abundance (log10)” value does the source give for “CAGTTAGCATGGACCGGTTTTCCCGGTAATCCGTATTTGTG (site CTGTTAGCTCA)” here?
A: Its value is 0.364.

Q: With “CAGTTCCCATGGACCGGTTTTCCCGGTAATCCGTATTTGCT (site CAATTCCCTAG)” as the sequence, how does the “recombinant UMI read abundance (log10)” value read?
A: Its value is 0.806.

Q: With “CAGTTCCCATGGACCGGTTTTCCCGGTAATCCGTATTTGCT (site CACTTCCCTAG)” as the sequence, how does the “recombinant UMI read abundance (log10)” value read?
A: Its value is 0.644.
